Data from patent US10857211B2, “Genomic instability markers in Fanconi anemia” (Children's Hospital Medical Center, priority 2014, dated 2020).
Entries after “also recorded” stand apart in the source; their conditions may differ.

Columns and labels:
SCC1 cells [1] = assay: Matrigel-coated transwell invasion assay, SCC1 cells; type: cell-based, human; settings: for invasion of FANCD2sh-treated SCC1 cells: Matrigel-coated transwells, 22 hours
Description: (§1) FIGS. 23A and B show a pathway loss promotes invasion of squamous tumor cells. Indicated cells were treated with the indicated shRNA vectors and then plated in Matrigel-coated transwells. After 22 hours, invasive cells were quantified.
After 22 hours, invasive cells were quantified. Representative images are shown. Experiments were carried out in duplicate, and standard deviation calculated.
FA pathway loss promoted motility and invasion. To assess motility and invasiveness of FA-deficient cells, the Matrigel cell invasion assay was used. […] To rule out off-target effects of the lentivirus, an shRNA-resistant EGFP-FANCD2 construct was introduced. The EGFP-FANCD2 fusion protein was expressed in GFP+ cells (but not GFP− cells), and was sufficient to block invasion of FANCD2sh-treated SCC1 cells (FIG. 23B). Similarly, FANCA and FANCJ knockdown stimulated invasion in SCC1 cells (FIG. 23C). […] Gains in cellular motility were also observed for normal oral keratinocytes (NOKS): 1.3% of NTsh normal oral keratinocytes (NOKS) cells plated were able to migrate through matrigel. This invasion frequency doubled upon FANCD2 knockdown, highlighting potential relevance for FA loss for the motility of normal cells (data not shown).

FA-deficient SCC = assay: Invasion of FA-deficient SCC, rescue by supplementation; type: cell-based
Rac1 = assay: Rac1-GTP pulldown assay in SCC1 cells; type: cell-based, human
Text: Members of the small GTPase Rho, Rac and CDC42 family of signaling molecules were key players in normal and transformed cell morphology, adhesion, motility, and invasion (46). […] Because Rac1 activation is reported to produce intercellular projections (47-48) similar to the ones noted in FA-deficient cells (FIG. 22E), the inventors carried out Rac1-GTP pull-downs to determine whether Rac1 is activated by FA pathway loss; FANCJsh SCC1 cells were used, since pDNA-PK activation in these cells was robust (FIG. 24A). […] To examine the requirement for Rac1 in cytoskeletal re-organization and invasion of FA-deficient cells, the specific Rac1 small molecule inhibitor NSC23766 was used (49-50). […] Thus, FA pathway loss leads to downstream activation of pDNA-PK and Rac1, and both are required for cytoskeletal rearrangements and invasion.

SCC1 cells [2] = assay: Cell growth in culture, SCC1 cells; type: cell-based, human; settings: for growth of FANCD2sh-treated SCC1 cells: NSC23766: 48 hours culture
pDNA-PKcs = biological target: T1, pDNA-PKcs (Homo sapiens, UniProt P78527); assay: Western blot of pDNA-PKcs in SCC1 cells after bleomycin pulse; type: cell-based; settings: 10 uM NU7026; 30-minute bleomycin pulse; FANCD2sh-, FANCJsh- and control (NTsh) SCC1 cells
T1 construct: Western blot analysis of NTsh-, FANCD2sh- and FANCJsh-treated SCC1 cells that were subjected to a 30-minute pulse of bleomycin; endogenous in cells; host or cells: UM-SCC1 (SCC1) HNSCC cells carrying NTsh, FANCD2sh or FANCJsh lentiviral shRNA
Text: DNA-PK/Rac1 signaling occurred in response to FA pathway loss and was required for cytoskeletal re-organization and invasion. […] These defects are accompanied, under some circumstances, by a corresponding increase in the activity of error-prone non-homologous end joining (NHEJ) pathway components (27-28). Repair by NHEJ requires activation of the catalytic subunit of DNA-dependent protein kinase (DNA-PKcs) and subsequent autophosphorylation on serine […] (pDNA-PKcs). The inventors first determined whether DNA-PKcs signaling was activated and involved in FA-associated invasion. FANCD2sh- and FANCJsh-treatment of SCC1 cells stimulated pDNA-PKcs.

SCC1 cells [3] = assay: Phalloidin staining, quantification of intercellular projections in SCC1 cells; type: cell-based, human; settings: FANCD2sh- and FANCJsh SCC1 cells, phalloidin stain
Text: (§2) Percentages of cells in G2/M are indicated. […] Images were taken at the same magnification and exposure. […] Errors bars represent standard deviation; ** p<0.001; *** p<0.0001 (ANOVA).

SCC1 cells [4] = assay: Flow cytometry-based cell-cycle analysis after melphalan, SCC1 cells; set-up: species or system human; settings: FANCD2-deficient SCC1 cells compared to NTsh
Text: as §2
FA pathway loss leads to cytoskeletal and membrane aberrations in HNSCC cells. A significant proportion of sporadic HNSCCs harbor somatic mutations in FA and FA-related genes (33). To test for biological effects of FA pathway loss, knockdown models of HNSCC were created using published lentiviral shRNA vectors (15, 41). First, the HPV-negative (UM-)SCC1 cell line was knocked down for FANCA, FANCD2, and FANCJ. Western blot analyses verified specific and efficient FA protein depletion (FIG. 22A). To verify that FANCD2 depletion induced classical FA phenotypes, DNA crosslinker sensitivity was quantified. […] This was similar to FA lymphoblasts and fibroblasts that also respond to melphalan with G2/M cell-cycle arrest (42-43). FANCA- and FANCJ-deficient SCC1 cells responded similarly, as did UMSCC6 and UMSCC47 HNSCC cell lines depleted for FA proteins (data not shown). Thus, FA knockdown in HPV-positive and -negative […] cells induced the classic FA DNA-crosslinker sensitivity phenotype.

SCC47 cells [5] = assay: Cell growth in culture, SCC47 cells; type: cell-based, human; settings: NB-DNJ
GM3 = GM3 levels by targeted MS in NB-DNJ treated cells; type: cell-based, human; settings: 100 uM NB-DNJ, 48 hrs; NTsh-, FANCD2sh- and FANCJsh-treated SCC1 and SCC47 cells
Description: (§3) FIGS. 27I and J show NTsh-, FANCD2sh- and FANCJsh-treated SCC1 and SCC47 cells were cultured for 48 hrs in 100 uM NB-DNJ.
(§4) GM3 is the precursor of complex gangliosides (FIG. 27E), a key component of cell membranes, and enriched in lipid rafts (LRs). GM3 and its derivative GM1 localize to microdomains in apical epithelial membranes (68) and GM3 depletion was reported to blocked wound healing in diabetic mice (69). Further, GM3 was elevated in head and neck tumors (compared to adjacent normal tissue) (70) and in serum of HNSCC patients, and was predictive of tumor size and relapse (71). On the other hand, links between GM3 levels and FA have not yet been reported. Targeted analyses by UPLC-MS/MS in normal cutaneous (NIKS) and normal oral (NOKS) keratinocytes, as well as in UM-SCC1 cells verified GM3 regulation across the major carbohydrate component lengths (i.e., from d34:1 to d44:2) (FIG. 27F-H). […] To assess the functional significance of ganglioside accumulation in FA cells, the effect of a ganglioside synthesis inhibitor N-butyldeoxynojirimycin (NB-DNJ)72 was measured on invasion driven by FA pathway loss. NTsh-, FANCD2sh- and FANCJsh-treated SCC1 and SCC47 cells were exposed to NB-DNJ (or vehicle), and subjected to Matrigel invasion assays (FIG. 23).

SCC47 cells [6] = assay: Matrigel-coated transwell invasion assay, SCC47 cells; type: cell-based, human; settings: 100 uM NB-DNJ, 48 hrs; NTsh, FANCD2sh, FANCJsh
Description: as §1, §3
as §4, with “NTsh-, FANCD2sh- and FANCJsh-treated SCC1 and SCC47 cells were exposed to NB-DNJ (or vehicle), and subjected to Matrigel invasion assays (FIG. 23).” left out

NeuACα2-3Galβ1-4Glcβ1-1ceramide [GM3]
invasion of SCC1 cells with GM3 in cell media (SCC1 cells [1]; GM3 50 uM): doubled the invasion
SCC1 invasion on GM3 addition to culture media (SCC1 cells [1]; particularly in FA-proficient cells, data not shown): stimulated SCC1 invasion

O=c1c(O)c(-c2ccc(O)c(O)c2)oc2cc(O)cc(O)c12 [quercetin]
invasion of FA-deficient SCC (FA-deficient SCC): rescued

O=c1cc(N2CCOCC2)oc2c1ccc1ccccc12 [NU7026]
invasion of FANCD2sh-treated SCC1 cells (SCC1 cells [1]): suppressed invasion
active Rac1 (Rac1-GTP) in FA-deficient cells (Rac1; FANCJsh SCC1 cells): significantly lowered active Rac1
Rac1 activity in control cells (Rac1; NTsh control SCC1 cells): did not affect Rac1 activity
growth of FANCD2sh-treated SCC1 cells (SCC1 cells [2]): did not appear to affect growth
pDNA-PKcs level (Western blot) (pDNA-PKcs): undetectable pDNA-PKcs

Oc1ccc([C@H]2COc3cc(O)ccc3C2)cc1 [equol]
invasion of FA-deficient SCC (FA-deficient SCC): rescued

CCN(CC)CCCC(C)Nc1nc(C)cc(Nc2ccc3nc(C)cc(N)c3c2)n1 (centres unmarked) [NSC23766]
number of long intercellular projections (SCC1 cells [3]): reduced the number of long intercellular projections
invasion of FANCD2sh-treated SCC1 cells (SCC1 cells [1]): suppressed cell invasion
invasion of control cells (SCC1 cells [1]; NTsh control SCC1 cells): did affect invasion of control cells
growth of FANCD2sh-treated SCC1 cells (SCC1 cells [2]): did not appear to affect growth

N[C@@H](Cc1ccc(N(CCCl)CCCl)cc1)C(=O)O [melphalan]
proportion of cells in G2/M after melphalan (SCC1 cells [4]): increased proportion of cells in G2/M

CC(C)CCC[C@@H](C)[C@H]1CC[C@H]2[C@@H]3CC=C4C[C@@H](O)CC[C@]4(C)[C@H]3CC[C@]12C [cholesterol]
invasion of FA-deficient SCC (FA-deficient SCC): rescued

CCCCN1C[C@H](O)[C@@H](O)[C@H](O)[C@H]1CO [NB-DNJ, N-butyldeoxynojirimycin]
invasion driven by FA loss, SCC1 cells (SCC1 cells [1]; 100 uM NB-DNJ, 48 hrs, NTsh, FANCD2sh, FANCJsh): selectively inhibited invasion driven by FA loss
growth of SCC1 cells (SCC1 cells [2]; NB-DNJ): did not affect the growth
growth of SCC47 cells (SCC47 cells [5]): did not affect the growth
GM3 levels (GM3): reduced GM3 levels; also recorded: successfully repressed GM3 levels
invasion driven by FA loss, SCC47 cells (SCC47 cells [6]): selectively inhibited invasion driven by FA loss
